The structures appear in SMILES notation. Where two headings read alike, the source gives them in different places.

Data set [1] has as its system L1210 line (mouse leukemic line). The experiment in a line: Inhibition of growth of L1210 line (tritiated thymidine incorporation, 48 hours). Format: cell-based. As to conditions: L1210 cells, read-out: IC50 (50% growth inhibition). The procedure:
The growth of this mouse leukemic line is assessed by the capacity of the cells to incorporate tritiated thymidine. The degree of incorporation is measured 48 hours after the introduction of the test compounds into the culture medium.

A short description of data set [2]: Detection of an excess-vitamin A type toxicity in vivo.
From the text: (§1) This can be reproduced experimentally in animals.
(§2) The selected treatment protocol is a daily injection for five days, repeated a second time after an interval of two days.
The test system of a further data set is humeri of rat fetuses. The experiment in a line: Toxicity on the humeri of rat fetuses explanted in vitro (proteoglycan release). Format: cell-based. To be noted: 7 days of culture in vitro, in words. The procedure: EXAMPLE 37: STUDY OF THE TOXICITY ON THE HUMERI OF RAT FETUSES OF GESTATIONAL AGE 21 DAYS
The toxicity of retinoids can be evaluated on humeri of rat fetuses of gestational age 21 days.
The toxicity of retinoids can be evaluated on humeri of rat fetuses explanted in vitro as described by KISTLER.
Retinoid activity results in a release of proteoglycans from the bony substance. This release is assessed after 7 days of culture in vitro by assaying the concentration of proteoglycans in the medium, by the method of WITHEMAN (1973).

For data set [3] the following is noted: in vivo.
From the text: as §1, §2
The mark [4] stands for this setting: daily injection for five days, repeated after two days interval.

Usually IC50 stands for the concentration that inhibits the measured activity by half. Regarding `CCOC(=O)/C=C(C)/C=C/C=C(C)/C=C/c1c(C)cc(OC)c(C)c1C` [Etretinate, etretinate], the IC50 in data set [1] was 80 µM. Moreover, in data set [2] (setting [4]), the alopecia entry was “appearance of alopecia”, the “fracture / bone weakening (radiography)” value was “bone weakening” and the weight entry is “rapid weight loss”. In addition, in data set [2] (overall, in words), the “excess-vitamin A type toxicity” value was “rapid weight loss, alopecia and bone weakening”. As for `CC(=Cc1ccccc1)C1=Cc2ccccc2OC1` [Example 1, 3-(1-PHENYLPROPEN-2-YL)-2H-CHROMENE], the IC50 in data set [1] was less than 1 µM. Still for that read-out and setting: the figure for `CC(=Cc1ccccc1)C1=Cc2cc(Cl)cc(C)c2OC1` [Example 3] is 20 µM; for `COC(=O)c1ccc(/C=C(\C)C2=Cc3ccccc3OC2)cc1` [Example 6, methyl 4-[2-(2H-chromen-3-yl)propenyl]benzoate] it is 25 µM. Turning to `COC(=O)c1ccc(/C=C(\C)C2=Cc3cc(Cl)cc(Cl)c3OC2)cc1` [Example 8], the “toxicity on the humeri” value in the data set on humeri of rat fetuses was “complete absence of toxicity”. In data set [1], the IC50 turned out to be 25 µM.

On to `CCOC(=O)c1ccc(/C=C(\C)C2=Cc3ccccc3OC2)cc1` [Example 10, ethyl 4-[2-(2H-chromen-3-yl)propenyl]benzoate], for which the IC50 in data set [1] was 18 µM. Turning to `CCNC(=O)c1ccc(/C=C(\C)C2=Cc3ccccc3OC2)cc1` [Example 13, N-ethyl-4-[2-(2H-chromen-3-yl)propenyl]benzamide], the IC50 in data set [1] stood at 3.8 µM. The same measure, in the same setting: the figure for `CCS(=O)(=O)c1ccc(/C=C(\C)C2=Cc3ccccc3OC2)cc1` [Example 16, ethyl 4-[2-(2H-chromen-3-yl)propenyl]phenyl sulfone] is 3.8 µM; for `CCS(=O)(=O)c1ccc(C=C(C)C2=Cc3cc(Cl)cc(C)c3OC2)cc1` [Example 17] it is 7.5 µM. Still for that read-out and setting: then `CCS(=O)(=O)c1ccc(C=C(C)C2=Cc3cc(C)cc(C)c3OC2)cc1` [Example 18], with 6 µM. For `CCS(=O)(=O)c1ccc(/C=C(\C)C2=Cc3cc(OC)ccc3OC2)cc1` [Example 24, ethyl 4-[2-(6-methoxy-2H-chromen-3-yl)propenyl]phenyl sulfone], the IC50 in data set [1] was 8 µM. For `CC1=C(/C=C/C(C)=C/C=C/C(C)=C/C(=O)O)C(C)(C)CCC1` [retinoic acid], in data set [3], the alopecia result is “appearance of alopecia” and the weight entry is given as “rapid weight loss”.

These data come from patent publication US4975455A, “New heteroarotinoid compounds” (Adir et Cie, priority 1988, dated 1990).
